Results from patent US12391648B2, “Pyridyloxy thioester derivative and preparation method therefor, herbicidal composition, and application” (Qingdao Kingagroot Chemical Compound Co., Ltd., priority 2018, dated 2025).

How the values were obtained:
Test in all cases: Post-emergence test experiment (Table 3, 1000 g/ha)
Type in all cases: in vivo
Details in all cases: post-emergence spray, after 3 weeks, fresh weight inhibition
Abutilon theophrasti = test system: Abutilon theophrasti
Outline: (§1)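 Weed seeds sown in soil-filled pots in greenhouse, sprayed at 2-3 leaf stage (2 weeks after sowing) with compound in acetone/tween-80 plus methyl oleate emulsible concentrate (1.5 L/ha) diluted in water. Fresh-weight growth inhibition scored after 3 weeks on 0-5 scale (5: >85%, 0: <5%).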

Digitaria sanguinalis = test system: Digitaria sanguinalis
Outline: as §1

Galium spurium = test system: Galium spurium
Outline: as §1

Leptochloa chinensis = test system: Leptochloa chinensis
Outline: as §1

Monochoria vaginalis = test system: Monochoria vaginalis
Outline: as §1

Setaria viridis = test system: Setaria viridis
Outline: as §1

Structure (SMILES) | Activity level (growth inhibition rate) Abutilon theophrasti (Abutilon theophrasti) | Activity level (growth inhibition rate) Digitaria sanguinalis (Digitaria sanguinalis) | Activity level (growth inhibition rate) Galium spurium (Galium spurium) | Activity level (growth inhibition rate) Leptochloa chinensis (Leptochloa chinensis) | Activity level (growth inhibition rate) Monochoria Vaginalis (Monochoria vaginalis) | Activity level (growth inhibition rate) Setaria viridis (Setaria viridis)
CC(Oc1nc(F)c(Cl)c(N)c1Cl)C(=O)SS(C)(=O)=O (stereo not drawn) [Compound 105] | 5 (Level 5: the growth inhibition rate is greater than 85%) | 5 (Level 5: the growth inhibition rate is greater than 85%) | 5 (Level 5: the growth inhibition rate is greater than 85%) | 5 (Level 5: the growth inhibition rate is greater than 85%) | 5 (Level 5: the growth inhibition rate is greater than 85%) | 5 (Level 5: the growth inhibition rate is greater than 85%)
CC(Oc1nc(F)c(Cl)c(N)c1Cl)C(=O)SC1CCCC1 (stereo not drawn) [Compound 125] | 5 (Level 5: the growth inhibition rate is greater than 85%) | 5 (Level 5: the growth inhibition rate is greater than 85%) | 5 (Level 5: the growth inhibition rate is greater than 85%) | 5 (Level 5: the growth inhibition rate is greater than 85%) | 5 (Level 5: the growth inhibition rate is greater than 85%) | 5 (Level 5: the growth inhibition rate is greater than 85%)
C=CCOC(=O)C(C)(C)SC(=O)C(C)Oc1nc(F)c(Cl)c(N)c1Cl (stereo not drawn) [Compound 96] | 5 (Level 5: the growth inhibition rate is greater than 85%) | 5 (Level 5: the growth inhibition rate is greater than 85%) | 5 (Level 5: the growth inhibition rate is greater than 85%) | 5 (Level 5: the growth inhibition rate is greater than 85%) | 5 (Level 5: the growth inhibition rate is greater than 85%) | 5 (Level 5: the growth inhibition rate is greater than 85%)
CCOCSC(=O)C(C)Oc1nc(F)c(Cl)c(N)c1Cl (stereo not drawn) [Compound 86] | 5 (Level 5: the growth inhibition rate is greater than 85%) | 5 (Level 5: the growth inhibition rate is greater than 85%) | 5 (Level 5: the growth inhibition rate is greater than 85%) | 5 (Level 5: the growth inhibition rate is greater than 85%) | 5 (Level 5: the growth inhibition rate is greater than 85%) | 5 (Level 5: the growth inhibition rate is greater than 85%)
CSC(=O)C(C)Oc1nc(I)c(Cl)c(N)c1Cl (stereo not drawn) [Compound 17] | 5 (Level 5: the growth inhibition rate is greater than 85%) | 5 (Level 5: the growth inhibition rate is greater than 85%) | 5 (Level 5: the growth inhibition rate is greater than 85%) | 5 (Level 5: the growth inhibition rate is greater than 85%) | 5 (Level 5: the growth inhibition rate is greater than 85%) | 5 (Level 5: the growth inhibition rate is greater than 85%)
COCCSC(=O)C(C)Oc1nc(F)c(Cl)c(N)c1Cl (stereo not drawn) [Compound 85] | 5 (Level 5: the growth inhibition rate is greater than 85%) | 5 (Level 5: the growth inhibition rate is greater than 85%) | 5 (Level 5: the growth inhibition rate is greater than 85%) | 5 (Level 5: the growth inhibition rate is greater than 85%) | 5 (Level 5: the growth inhibition rate is greater than 85%) | 5 (Level 5: the growth inhibition rate is greater than 85%)
CC(Oc1nc(F)c(Cl)c(N)c1Cl)C(=O)SC(F)(F)F (stereo not drawn) [Compound 75] | 5 (Level 5: the growth inhibition rate is greater than 85%) | 5 (Level 5: the growth inhibition rate is greater than 85%) | 5 (Level 5: the growth inhibition rate is greater than 85%) | 5 (Level 5: the growth inhibition rate is greater than 85%) | 5 (Level 5: the growth inhibition rate is greater than 85%) | 5 (Level 5: the growth inhibition rate is greater than 85%)
CC(Oc1nc(F)c(Cl)c(N)c1Cl)C(=O)SC/C=C/Cl (stereo not drawn) [Compound 91] | 5 (Level 5: the growth inhibition rate is greater than 85%) | 5 (Level 5: the growth inhibition rate is greater than 85%) | 5 (Level 5: the growth inhibition rate is greater than 85%) | 5 (Level 5: the growth inhibition rate is greater than 85%) | 5 (Level 5: the growth inhibition rate is greater than 85%) | 5 (Level 5: the growth inhibition rate is greater than 85%)
CC(Oc1nc(F)c(Cl)c(N)c1Cl)C(=O)Sc1cccs1 (stereo not drawn) [Compound 121] | 5 (Level 5: the growth inhibition rate is greater than 85%) | 5 (Level 5: the growth inhibition rate is greater than 85%) | 5 (Level 5: the growth inhibition rate is greater than 85%) | 5 (Level 5: the growth inhibition rate is greater than 85%) | 5 (Level 5: the growth inhibition rate is greater than 85%) | 5 (Level 5: the growth inhibition rate is greater than 85%)
CC(Oc1nc(F)c(Cl)c(N)c1Cl)C(=O)SC[N+](=O)[O-] (stereo not drawn) [Compound 156] | 5 (Level 5: the growth inhibition rate is greater than 85%) | 5 (Level 5: the growth inhibition rate is greater than 85%) | 5 (Level 5: the growth inhibition rate is greater than 85%) | 5 (Level 5: the growth inhibition rate is greater than 85%) | 5 (Level 5: the growth inhibition rate is greater than 85%) | 5 (Level 5: the growth inhibition rate is greater than 85%)
CC(Oc1nc(F)c(Cl)c(N)c1Cl)C(=O)SCC(F)(F)F (stereo not drawn) [Compound 78] | 5 (Level 5: the growth inhibition rate is greater than 85%) | 5 (Level 5: the growth inhibition rate is greater than 85%) | 5 (Level 5: the growth inhibition rate is greater than 85%) | 5 (Level 5: the growth inhibition rate is greater than 85%) | 5 (Level 5: the growth inhibition rate is greater than 85%) | 5 (Level 5: the growth inhibition rate is greater than 85%)
CSC(=O)C(C)Oc1nc(F)c(C(F)(F)F)c(N)c1Cl (stereo not drawn) [Compound 15] | 5 (Level 5: the growth inhibition rate is greater than 85%) | 5 (Level 5: the growth inhibition rate is greater than 85%) | 5 (Level 5: the growth inhibition rate is greater than 85%) | 5 (Level 5: the growth inhibition rate is greater than 85%) | 5 (Level 5: the growth inhibition rate is greater than 85%) | 5 (Level 5: the growth inhibition rate is greater than 85%)
COc1ccc(SC(=O)C(C)Oc2nc(F)c(Cl)c(N)c2Cl)cc1 (stereo not drawn) [Compound 111] | 5 (Level 5: the growth inhibition rate is greater than 85%) | 5 (Level 5: the growth inhibition rate is greater than 85%) | 5 (Level 5: the growth inhibition rate is greater than 85%) | 5 (Level 5: the growth inhibition rate is greater than 85%) | 5 (Level 5: the growth inhibition rate is greater than 85%) | 5 (Level 5: the growth inhibition rate is greater than 85%)
CCCC(C)SC(=O)C(C)Oc1nc(F)c(Cl)c(N)c1Cl (stereo not drawn) [Compound 144] | 5 (Level 5: the growth inhibition rate is greater than 85%) | 5 (Level 5: the growth inhibition rate is greater than 85%) | 5 (Level 5: the growth inhibition rate is greater than 85%) | 5 (Level 5: the growth inhibition rate is greater than 85%) | 5 (Level 5: the growth inhibition rate is greater than 85%) | 5 (Level 5: the growth inhibition rate is greater than 85%)
